Test results: US11419869B2, “Dosage forms and regimens for amino acid compounds” (Pliant Therapeutics, Inc., priority 2019, dated 2022)

Assays:
[1] = tested on: COL1A1 expression; assay: Precision cut lung slices from human IPF explants, COL1A1 expression (Example B11); format: cell-based
From the text: Explanted lung tissue was obtained from human IPF subjects and inflated with agarose as described in the preceding examples. Biopsy cores were obtained from the agarose-inflated lung tissue. The biopsy cores were subjected to precision slicing to obtain several hundred μm thick. Individual slices were distributed in a multiwell culture plate and cultured for […] under control (DMSO) and test compound conditions. The viability of the slices over the course of culturing was confirmed by WST-1 assay of mitochondrial activity.
PCLS from 5-7 idopathic pulmonary fibrosis (IPF) lung tissue samples were cultured for seven days with one of: DMSO; Compound 5 at 200 nM; nintedanib at 75 nM; pirfenidone at 50 μm; a combination of Compound 5 at 200 nM and nintedanib at 75 nM; a combination of Compound 5 at 200 nM and pirfenidone at […]; or an Alk5 inhibitor at 1 μm. […] FIG. 6D is a bar graph showing relative expression of COL1A1 in precision cut lung slices (PCLS) from idopathic pulmonary fibrosis (IPF) lung tissue upon exposure to Comopund 5, clinical standard of care compounds nintedanib (Nin) and pirfenidone (Pirf), and an ALK5 inhibitor, all versus DMSO control.
PCLS from a single IPF lung tissue sample were cultured for seven days with Compound 5 at concentrations of […], 2 nM, 60 nM, 200 nM, and 1 μM, along with 0.1% DMSO control and an Alk5 inhibitor at 1 μM. […] COL1A1 expression is also graphed for the PCLS in the presence of 0.1% DMSO control, and an Alk5 inhibitor at 1 μM.

[2] = tested on: lung Col1a1 expression; assay: Precision cut lung slices, chronic bleomycin, versus pirfenidone and nintedanib (Example B10); format: cell-based, mice; settings: 7 days culture, vs DMSO vehicle, FIG. 6A
Procedure: Mice (C57BL/6) were administered 3 U/kg of bleomycin (Teva Pharmaceuticals; North Wales, Pa.) on Day 0 and 1 U/kg of bleomycin on days 14, 28, 42 and 56 via oropharyngeal aspiration while under anesthesia. At day 70, 14 days following the final bleomycin insult, precision cut lung slices were obtained. Following euthanization, 2% low gelling temp agarose was injected into the mouse lungs via the trachea. […] The lobes were then subjected to precision slicing to obtain samples for culture using a microtome (Compresstome VF-300-0Z, Precisionary; Greenville, N.C.). Individual slices were distributed in a multiwell culture plate and cultured for 7 days under control (DMSO) and test compound conditions. The viability of the slices over the course of culturing was confirmed by WST-1 assay of mitochondrial activity.
During the culture period, slices in the control group were treated with DMSO and slices in the test group were treated with a DMSO solution of one of compound 5; nintedanib; pirfenidone; a combination of nintedanib and compound 5; a combination of pirfenidone and compound 5; or the small molecule ALK5 inhibitor. Compound 5 was […] effective to equal or exceed its respective IC50 values at αvβ6 and αvβ1. The small molecule ALK5 inhibitor was analyzed at […] its reported IC50 value. Nintendanib and pirfenidone were analyzed at concentrations 10× their reported therapeutic concentrations.

[3] = tested on: IPF-derived human lung fibroblasts; assay: LAP adhesion binding assay, IPF-derived human lung fibroblasts; format: cell-based; settings: adhesion to LAP, cell index (electrical impedance), FIG. 3B
Procedure: Two latency associated peptide (LAP) adhesion binding assays were devised using primary human lung cells, including normal (healthy) human bronchial epithelial cells and human lung fibroblasts (healthy and IPF).
Human lung fibroblasts derived from normal and IPF lung tissue are known to express αvβ1 integrin. The IPF-derived human lung fibroblasts were prepared for the assay by dissociation with trypsin/EDTA, and were seeded at 20,000 cells per well on 96 well plates (ACEA Bioscience E-plate View, Acea Biosciences; San Diego, Calif.) previously coated with 5 μg/ml of recombinant human LAP (R&D Systems; Minneapolis, Minn.) and blocked with 4% bovine serum albumin. Cell index (electrical impedance) was measured to assess cell attachment/spreading every 3 minutes for 24 hours at 37° C./5% CO2 using the xCELLigence RTCA MP Instrument (Acea Biosciences; San Diego, Calif.). […] In the assay, the IPF-derived human lung fibroblasts were separately incubated with: the αvβ1-selective small molecule inhibitor; the selective antibody αvβ6 inhibitor, 3G9; and compound 5.

[4] = tested on: Mice (C57BL/6); assay: Murine bleomycin model (Example B7); format: in vivo
Procedure: Mice (C57BL/6) were divided into healthy (n=15), vehicle-treated (n=15), and test article-treated (n=15 per dose) groups. Mice in the vehicle and test article-treated groups were administered 3 U/kg of bleomycin (Teva Pharmaceuticals; North Wales, Pa.) via oropharyngeal aspiration while under anesthesia on day 0. Healthy animals were administered water in a similar fashion. Starting on day 7, mice in the control group were administered PBS vehicle, 130 μL, by oral gavage, BID for 14 days. Also starting on day 7, mice in the test group were administered compound 5 in PBS by oral gavage, BID for 14 days, at relative dosages of 1×, 2.5× and 5×. […] From day 14 through day 21, 9 of the 15 mice were administered ^2H2O for labeling. All mice were sacrificed on day 21 and tissues were collected. Samples were prepared for analysis either directly from lung tissue, or by bronchoalveolar lavage, which washes out the bronchiolar and alveolar space with saline to produce a bronchoalveolar lavage fluid (BALF) in which 80-90% of cells are alveolar macrophages.
FIG. 4C is a graph showing that compared to the healthy mice, lung tissue in the vehicle-treated mice experienced a substantial increase in SMAD3 phosphorylation, which is a measure of TGF-β signaling-related kinase activity. […] FIG. 4D is a graph showing that compared to the healthy mice, lung tissue in the vehicle-treated mice experienced a substantial accumulation of new collagen as evidenced by the percentage of lung collagen containing ^2H-labeled hydroxyproline.
FIGS. 4F, 4G, and 4H show high resolution second harmonic generation images of fibrillar collagen (collagen type I and III) taken from formalin-fixed paraffin embedded lung tissue sections from a healthy mouse lung (4F), a vehicle-treated mouse lung (4G) and a test-article treated mouse lung (4H; 500 mg/kg BID). Color scale is indicative of collagen fiber density (red=most dense; blue=least dense).
FIG. 4I is a graph showing the percent total collagen area in the second harmonic generation mouse lung images. Large structural areas of collagen found similarly in healthy and fibrotic tissues (dense collagen fibers surrounding airways were excluded from this analysis to focus on interstitial fibrotic collagen). […] The 1×, 2.5×, and 5× dosages were at the same absolute values in mg/kg as in Example B7.
The data for FIGS. 4J and 4K, was obtained 14 days after bleomycin challenge in mice were treated with compound 5 at 2.5× dose (PO, BID for 1.5 days).

[5] = tested on: COL1A1 expression; assay: COL1A1 expression in precision cut lung slices (PCLS) from human IPF lung tissue; settings: FIG. 6E, 200 pM to 1 μM

COCCN(CCCCc1ccc2c(n1)NCCC2)CC[C@H](Nc1ncnc2ccccc12)C(=O)O [Compound 5, (S)-4-((2-methoxyethyl) (4-(5,6,7,8-tetrahydro-1,8-naphthyridin-2-yl)butyl)amino)-2-(quinazolin-4-ylamino) butanoic acid]
COL1A1 expression, dose dependence ([1]; PCLS from a single IPF lung sample, seven days, 200 pM to 1 μM, FIG. 6E): dose dependent reduction
reduction in COL1A1 expression ([1]; PCLS from a single IPF lung sample, seven days, at ≥2 nM, FIG. 6E): ≥ 47 % reduction
lung Col1a1 expression ([1]; human IPF slices, 3 days, 3G9 ≥400 ng/mL, compound 5 179 nM, ALK5 inhibitor 1 μM, FIG. 6C): substantial, statistically significant (p<0.01 vs vehicle) decrease
lung slice Col1a1 expression [2]: substantial, statistically significant (p<0.01 vs vehicle) decrease
cell adhesion in the IPF-derived lung fibroblasts [3]: substantially inhibited
pSMAD3 levels in lung and BALF cells vs. plasma drug exposure ([4]; 14 days after bleomycin, […] dose PO BID for 1.5 days, FIGS. 4J, 4K): close inverse relationship
percent total collagen area in second harmonic generation lung images ([4]; bleomycin mice, 1× (p<0.05), […] (p<0.01), 5× (p<0.0001 vs vehicle), FIG. 4I): substantial, statistically significant dose-dependent reduction
accumulated new collagen (percentage of lung collagen containing 2H-labeled hydroxyproline) ([4]; bleomycin mice, 1× and 5× (p<0.01 vs vehicle), FIG. 4D): dose-dependent reduction
total pulmonary collagen, as measured by μg of hydroxyproline ([4]; bleomycin mice, 1×, […], 5× (p<0.05 vs vehicle), FIG. 4E): reduction in total pulmonary collagen
SMAD3 phosphorylation in lung tissue ([4]; bleomycin mice, oral gavage BID 14 days at 1×, […], 5×, vs vehicle, FIG. 4C): substantial, statistically significant dose-dependent reductions
pSMAD3 levels in the lung ([4]; bleomycin mice, time- and dose-dependent inhibition): approximately 50 % of the untreated levels
COL1A1 expression [5]: dose dependent reduction
